Source: patent US7166611B2, “Pharmaceutical compositions having appetite suppressant activity” (priority 1997, dated 2007)

What was measured:
Type in all cases: in vivo, rat
[1] = test system: male Wistar rats; experiment: Example 44 single oral dose study: water consumption
Experimental: (§1) Sample 1 to 3 were each administered as a single oral dose to male Wistar rats. Two additional control groups received vehicle (distilled water or DMSO). Orally administered fenfluramine (7.5 mg/kg) was included as a reference standard.
(§2) Fifty-five male Wistar rats were used for the study.
(§3) Bodyweights, food consumption (food hopper weight) and water consumption (bottle weight) were recorded daily at the same time each day from the day of arrival until the termination of the study.
(§4) On Day 1, the rats received a single oral (gavage) dose according to the following table:
(§5) Groups 1–8 were dosed using a constant dose volume of 10 ml/kg and groups 9–12 were dosed using a dose volume of 1 ml/kg.
(§6) Food and water consumption were also measured at […] after dosing on Day 1.
(§7) The post-dose food and water consumption measurements and bodyweights at each time-point for the P57-treated animals were compared with those for the relevant, similarly-treated vehicle control group using analysis of variance followed by Williams' test for comparisons with controls.
(§8) The data for the fenfluramine-treated animals was compared with that for the vehicle-treated control group using Student's t test.

[2] = test system: rats; experiment: Bioassay of chromatographic fractions for appetite suppressant activity; conditions: bioassay of fractions from silica gel chromatography
Source text: The extract may be prepared from plant material such as the stems and roots of said plants of the genus Trichocaulon or of the genus Hoodia. The genus Trichocaulon and the genus Hoodia include succulent plants growing in arid regions such as are found in Southern Africa. In one application of the invention, the active appetite suppressant extract is obtained from the species Trichocaulon piliferum. The species Trichocaulon officinale may also be used to provide an active appetite suppressant extract. In another application of the invention, the active appetite suppressant extract may be obtained from the species Hoodia currorii, Hoodia gordonii or Hoodia lugardii.
The partially purified active extract may be dissolved in methanol, and may be further fractionated by column chromatography, employing silica gel as an adsorption medium and a chloroform/30% methanol mixture as an eluent. A plurality of different fractions may be obtained, and each may be evaluated, by suitable bioassaying procedures, to determine the appetite suppressant activity thereof.
A fraction having appetite suppressant activity may preferably be further fractionated such as by column chromatography using silica gel as an adsorption medium and a 9:1 chloroform:methanol solvent, and the resultant sub-fractions bioassayed for their appetite suppressant activity. […]

[3] = Example 44 single oral dose study: bodyweight
Experimental: as §1, §2, §3, §4, §5, §7, §8

[4] = test system: male Wistar rats; experiment: Example 44 single oral dose study: food consumption
Experimental: as §1, §2, §3, §4, §5, §6, §7, §8

[5] = test system: male Wistar rats; experiment: Example 44 single oral dose study: liver histopathology; conditions: for Liver (ORO stain): Hepatocyte fat - centrilobular(Total) / Liver (ORO stain): Hepatocyte fat - centrilobular, Minimal / Liver (ORO stain): No abnormalities detected / Liver: Hepatocyte necrosis - focal (Total) / Liver: Hepatocyte necrosis - focal, Minimal / Liver: No abnormalities detected (incidence) / Liver: Parenchymal inflammatory cell foci (Total) / Liver: Parenchymal inflammatory cell foci, Minimal / Liver: Portal leucocytes (Total) / Liver: Portal leucocytes, Minimal / Liver: Portal lymphoid infiltration (Total) / Liver: Portal lymphoid infiltration, Minimal: 5 examined
Source text: Following the measurements of Day 8, the animals were killed by carbon dioxide asphyxiation, and the livers excised and placed in 10% buffered formalin, prior to histology.
Paraffin wax sections of each liver were taken at 4–5 μm and stained with haematoxylin and eosin. Additional sections were cut on a cryostat at 12 μm and stained for fat with Oil Red O (ORO).
Histological examination was restricted to the liver.

[6] = test system: young female rats; experiment: Oral Dose Anorectic Test, three consecutive days
Experimental: Animals were allocated to treatment groups using randomisation tables. Each treatment group consisted of three animals, with 6 animals in the control group. The test sample was dosed to young female rats with body weight 100–150 g at acclimatisation, for three consecutive days. Animals were identified by means of metallic ear tags and KMnO4 skin markings for easy identification. Animals were housed individually in standard rodent polycarbonate cages, and water and powdered commercial rodent pellets were available ad libitum. Water and food intakes were measured and calculated for each day. In order to find the minimum effective dose of the test sample, five doses were tested. Treatment was by oral gavage, with the test sample suspended in potato starch.
The test substance was compound (1), a white granular powder prepared from an extract from plant material in accordance with the invention, and the measured quantity of the test sample was mixed with prepared potato starch and dosed. Mixing with potato starch took place immediately before dosing on each day. Before withdrawal of the dosing volume for each animal, the suspensions were mixed thoroughly using a Vortex.
A range of five doses was tested, with a control group 15 receiving only the carrier substance.

[7] = 2.5 and 5.0 mg/kg single oral dose
[8] = 2.5 mg/kg single oral dose on Day 1
[9] = 5.0 mg/kg single oral dose on Day 1

3-0-[-β-D-thevetopyranosyl-(1→4)-β-D-cymaropyranosyl-(1→4)-β-D-cymaropyranosyl]-12β-0-tigloyloxy-14-hydroxy-14β-pregn-5-en-20-one [Compound (1)]
Group mean water consumption (g ± sd) between Days: 1–2 ([1]; 2.5 mg/kg single oral dose): 32.2 ± 4.01 g | Group mean water consumption (g ± sd) between Days: 2–3 ([1]; 2.5 mg/kg single oral dose): 36.1 ± 12.42 g | Group mean water consumption (g ± sd) between Days: 3–4 ([1]; 2.5 mg/kg single oral dose): 38.3 ± 11.71 g | Group mean water consumption (g ± sd) between Days: 4–5 ([1]; 2.5 mg/kg single oral dose): 41.5 ± 16.60 g | Group mean water consumption (g ± sd) between Days: 5–6 ([1]; 2.5 mg/kg single oral dose): 34.7 ± 7.57 g | Group mean water consumption (g ± sd) between Days: 6–7 ([1]; 2.5 mg/kg single oral dose): 33.0 ± 4.20 g | Group mean water consumption (g ± sd) between Days: 7–8 ([1]; 2.5 mg/kg single oral dose): 35.3 ± 8.70 g | Group mean water consumption (g ± sd) between Days: 1–2 ([1]; 5.0 mg/kg single oral dose): 33.9 ± 2.40 g | Group mean water consumption (g ± sd) between Days: 2–3 ([1]; 5.0 mg/kg single oral dose): 31.5 ± 8.12 g | Group mean water consumption (g ± sd) between Days: 3–4 ([1]; 5.0 mg/kg single oral dose): 35.1 ± 3.82 g | Group mean water consumption (g ± sd) between Days: 4–5 ([1]; 5.0 mg/kg single oral dose): 37.7 ± 5.99 g | Group mean water consumption (g ± sd) between Days: 5–6 ([1]; 5.0 mg/kg single oral dose): 39.5 ± 7.78 g | Group mean water consumption (g ± sd) between Days: 6–7 ([1]; 5.0 mg/kg single oral dose): 37.4 ± 11.07 g | Group mean water consumption (g ± sd) between Days: 7–8 ([1]; 5.0 mg/kg single oral dose): 37.8 ± 6.42 g | effects on water consumption [1, 7]: No statistically significant effects on water consumption | appetite suppressant activity [2]: marked appetite suppressant activity | Group mean bodyweight (g ± sd) on Day: 2 [3, 8]: 191.2 ± 11.15 g | Group mean bodyweight (g ± sd) on Day: 3 [3, 8]: 200.0 ± 11.25 g | Group mean bodyweight (g ± sd) on Day: 4 [3, 8]: 209.6 ± 12.28 g | Group mean bodyweight (g ± sd) on Day: 5 [3, 8]: 219.6 ± 12.95 g | Group mean bodyweight (g ± sd) on Day: 6 [3, 8]: 229.4 ± 13.69 g | Group mean bodyweight (g ± sd) on Day: 7 [3, 8]: 238.4 ± 14.50 g | Group mean bodyweight (g ± sd) on Day: 8 [3, 8]: 247.0 ± 14.35 g | Group mean bodyweight (g ± sd) on Day: 2 [3, 9]: 192.0 ± 9.93 g | Group mean bodyweight (g ± sd) on Day: 3 [3, 9]: 192.4 ± 9.84 g | Group mean bodyweight (g ± sd) on Day: 4 [3, 9]: 201.0 ± 11.27 g | Group mean bodyweight (g ± sd) on Day: 5 [3, 9]: 209.4 ± 12.70 g | Group mean bodyweight (g ± sd) on Day: 6 [3, 9]: 219.8 ± 11.86 g | Group mean bodyweight (g ± sd) on Day: 7 [3, 9]: 228.2 ± 12.28 g | Group mean bodyweight (g ± sd) on Day: 8 [3, 9]: 236.0 ± 13.95 g | effects on bodyweights [3, 7]: No statistically significant effects on bodyweights | Group mean food consumption (g ± sd) between Days: 1–2 ([4]; 2.5 mg/kg single oral dose): 26.8 ± 3.33 g | Group mean food consumption (g ± sd) between Days: 2–3 ([4]; 2.5 mg/kg single oral dose): 29.1 ± 3.43 g | Group mean food consumption (g ± sd) between Days: 3–4 ([4]; 2.5 mg/kg single oral dose): 31.7 ± 3.08 g | Group mean food consumption (g ± sd) between Days: 4–5 ([4]; 2.5 mg/kg single oral dose): 34.0 ± 2.95 g | Group mean food consumption (g ± sd) between Days: 5–6 ([4]; 2.5 mg/kg single oral dose): 34.4 ± 4.32 g | Group mean food consumption (g ± sd) between Days: 6–7 ([4]; 2.5 mg/kg single oral dose): 33.1 ± 4.11 g | Group mean food consumption (g ± sd) between Days: 7–8 ([4]; 2.5 mg/kg single oral dose): 34.8 ± 3.71 g | Group mean food consumption (g ± sd) between Days: 1–2 ([4]; 5.0 mg/kg single oral dose): 22.1 ± 2.19 g | Group mean food consumption (g ± sd) between Days: 2–3 ([4]; 5.0 mg/kg single oral dose): 21.0 ± 3.07 g | Group mean food consumption (g ± sd) between Days: 3–4 ([4]; 5.0 mg/kg single oral dose): 27.6 ± 5.26 g | Group mean food consumption (g ± sd) between Days: 4–5 ([4]; 5.0 mg/kg single oral dose): 30.5 ± 3.33 g | Group mean food consumption (g ± sd) between Days: 5–6 ([4]; 5.0 mg/kg single oral dose): 33.0 ± 3.16 g | Group mean food consumption (g ± sd) between Days: 6–7 ([4]; 5.0 mg/kg single oral dose): 32.4 ± 3.25 g | Group mean food consumption (g ± sd) between Days: 7–8 ([4]; 5.0 mg/kg single oral dose): 33.0 ± 3.84 g | duration of reduction in food consumption ([4]; 5.0 mg/kg single oral dose): 48 hours post-dose | food consumption versus vehicle-treated animals ([4]; 5.0 mg/kg single oral dose): statistically significant reductions in food consumption | Liver (ORO stain): Hepatocyte fat - centrilobular(Total) ([5]; Group 9, 2.5 mg/kg): 2 | Liver (ORO stain): Hepatocyte fat - centrilobular, Minimal ([5]; Group 9, 2.5 mg/kg): 2 | Liver (ORO stain): No abnormalities detected ([5]; Group 9, 2.5 mg/kg): 3 | Liver: Hepatocyte necrosis - focal (Total) ([5]; Group 9, 2.5 mg/kg): 1 | Liver: Hepatocyte necrosis - focal, Minimal ([5]; Group 9, 2.5 mg/kg): 1 | Liver: No abnormalities detected (incidence) ([5]; Group 9, 2.5 mg/kg): 0 | Liver: Parenchymal inflammatory cell foci (Total) ([5]; Group 9, 2.5 mg/kg): 0 | Liver: Parenchymal inflammatory cell foci, Minimal ([5]; Group 9, 2.5 mg/kg): 0 | Liver: Portal leucocytes (Total) ([5]; Group 9, 2.5 mg/kg): 1 | Liver: Portal leucocytes, Minimal ([5]; Group 9, 2.5 mg/kg): 1 | Liver: Portal lymphoid infiltration (Total) ([5]; Group 9, 2.5 mg/kg): 5 | Liver: Portal lymphoid infiltration, Minimal ([5]; Group 9, 2.5 mg/kg): 5 | Liver (ORO stain): Hepatocyte fat - centrilobular(Total) ([5]; Group 10, 5 mg/kg): 2 | Liver (ORO stain): Hepatocyte fat - centrilobular, Minimal ([5]; Group 10, 5 mg/kg): 2 | Liver (ORO stain): No abnormalities detected ([5]; Group 10, 5 mg/kg): 3 | Liver: Hepatocyte necrosis - focal (Total) ([5]; Group 10, 5 mg/kg): 0 | Liver: Hepatocyte necrosis - focal, Minimal ([5]; Group 10, 5 mg/kg): 0 | Liver: No abnormalities detected (incidence) ([5]; Group 10, 5 mg/kg): 1 | Liver: Parenchymal inflammatory cell foci (Total) ([5]; Group 10, 5 mg/kg): 0 | Liver: Parenchymal inflammatory cell foci, Minimal ([5]; Group 10, 5 mg/kg): 0 | Liver: Portal leucocytes (Total) ([5]; Group 10, 5 mg/kg): 0 | Liver: Portal leucocytes, Minimal ([5]; Group 10, 5 mg/kg): 0 | Liver: Portal lymphoid infiltration (Total) ([5]; Group 10, 5 mg/kg): 4 | Liver: Portal lymphoid infiltration, Minimal ([5]; Group 10, 5 mg/kg): 4 | histological examination of the liver ([5]; all doses tested, single oral dose, livers taken Day 8): No treatment-related changes were detected

C/C=C(\C)C(=O)O[C@@H]1CC2C(CC=C3C[C@@H](OC4CC(OC)C(OC5CC(OC)C(OC6OC(C)C(O)C(OC)C6O)C(C)O5)C(C)O4)CC[C@@]32C)[C@@]2(O)CC[C@H](C(C)=O)[C@@]12C (stereo partly drawn) [Compound (1), 3-0-[-β-D-thevetopyranosyl-(1→4)-β-D-cymaropyranosyl-(1→4)-β-D-cymaropyranosyl]-12β-0-tigloyloxy-14-hydroxy-14β-pregn-5-en-20-one]
body mass ([6]; 12.50 mg/kg group, oral): Actual loss in body mass | health of the animals ([6]; 6.25–50.00 mg/kg oral gavage, three consecutive days): Treatment did not affect the health of the animals | liver at post-mortem examination ([6]; all dose groups 6.25–50.00 mg/kg oral): friable livers | mean body mass gain over the total study period ([6]; all dose groups 6.25–50.00 mg/kg oral, three consecutive days): significantly reduced mean body mass gain | Respiratory rate ([6]; any dose group 6.25–50.00 mg/kg oral): in none of the animals in any dose group was significantly effected | water consumption ([6]; higher dose groups, oral, three consecutive days): increased water consumption | food intake and body mass gain ([6]; lowest dose group 6.25 mg/kg oral): Reduced food intake and reduced body mass gain | appetite suppressive action ([6]; lowest dose tested 6,25 mg/kg oral): has appetite suppressive action | appetite suppressant activity [2]: found to have appetite suppressing activity
